Test: solvent given as SMILES

Structure (SMILES): COc1ccc(OC)c(C=O)c1
- emission maximum (in CC(C)=O): 410 nm
- emission maximum (in CCCO): 458 nm
- emission maximum (in CCO): 459 nm
- emission maximum (in CNC=O): 458 nm
- emission maximum (in CO): 466 nm
- emission maximum (in CS(C)=O): 431 nm
- emission maximum (in ClC(Cl)Cl): 427 nm
- emission maximum (in NC=O): 464 nm

— the Deep4Chem optical property database
